The target of one experiment is T1, APOL1 (Homo sapiens, UniProt O14791).
T1 sequence (O14791 1-398 S342G/I384M): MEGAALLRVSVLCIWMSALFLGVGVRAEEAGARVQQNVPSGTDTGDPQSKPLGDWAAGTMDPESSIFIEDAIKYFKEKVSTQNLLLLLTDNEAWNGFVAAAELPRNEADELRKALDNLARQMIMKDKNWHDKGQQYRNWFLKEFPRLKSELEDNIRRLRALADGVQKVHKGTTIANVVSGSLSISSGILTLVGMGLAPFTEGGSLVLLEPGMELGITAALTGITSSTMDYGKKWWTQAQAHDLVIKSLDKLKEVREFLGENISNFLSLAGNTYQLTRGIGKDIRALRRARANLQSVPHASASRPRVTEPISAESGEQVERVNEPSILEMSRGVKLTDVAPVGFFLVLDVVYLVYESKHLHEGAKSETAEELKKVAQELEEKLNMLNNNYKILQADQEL
Description: Multi-Tox Assay (MultiTox-Fluor Multiplex Cytotoxicity Assay in tet-inducible APOL1 T-REx-HEK293 cells; Table 46 does not say which APOL1 variant G0/G1/G2). The following applies: APOL1 variant not given; for IC50: IP50 = IC50 for cell proliferation. In kind it is cell-based.

In a further experiment the target is T2, APOL1 G1 (Homo sapiens, UniProt O14791, I384M/S342G).
T2 sequence (O14791 28-398 S342G/I384M): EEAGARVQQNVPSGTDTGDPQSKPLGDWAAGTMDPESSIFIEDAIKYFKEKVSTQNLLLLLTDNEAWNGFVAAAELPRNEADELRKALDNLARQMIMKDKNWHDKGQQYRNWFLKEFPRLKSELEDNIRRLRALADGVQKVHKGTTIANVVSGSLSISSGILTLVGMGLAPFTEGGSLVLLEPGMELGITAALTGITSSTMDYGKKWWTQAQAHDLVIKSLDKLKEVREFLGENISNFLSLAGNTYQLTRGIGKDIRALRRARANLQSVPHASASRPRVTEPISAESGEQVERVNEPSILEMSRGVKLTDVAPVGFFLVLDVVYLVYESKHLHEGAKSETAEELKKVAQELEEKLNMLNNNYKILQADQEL
Description: Trypanosoma brucei brucei Lysis Assay Using APOL1 Recombinant Protein (AlamarBlue viability readout). The following applies: for IC50: IP50 = IC50 for cell proliferation, read-out: Trypanosome Assay IP50; for Emax: read-out: Trypanosome Assay Max Activity (%). In kind it is cell-based. In outline: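 Percent viability comes from AlamarBlue (resazurin→resorufin) fluorescence interpolated on a standard curve of known parasite numbers, with no-APOL1 wells as 100%. Parasites (Lister 427 bloodstream form, 120,000/well, serum-free assay medium) meet 0.05 μg/mL APOL1 (~EC90). Compounds span a 10-point series, 0.1% DMSO final.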

Structures are written as SMILES. Read-outs that look alike come from different tables or passages of the source.

Consider `C[C@@H]1CC2(C[C@H](C)N1)OCCc1cc(Cl)sc12` (single isomer, unassigned) [Compound 204], for which the IC50 at APOL1 and at APOL1 G1 (Trypanosome Assay) was 50 to 500 nM each time. Further, on APOL1 G1, the Emax amounted to 112%.

Turning to `Clc1cc2c(s1)C1(C[C@@H](C3CC3)N[C@@H](C3CC3)C1)OCC2` (single isomer, unassigned) [Compound 206], the IC50 at APOL1 was < 50 nM. Besides, at APOL1 G1 (Trypanosome Assay), the IC50 fell in the range of 50 to 500 nM and the Emax turned out to be 104%.

With `C[C@@H]1CC2(C[C@H](C)N1)OCCc1cc(C(F)(F)F)sc12` (single isomer, unassigned) [Compound 207], the IC50 against APOL1 and on APOL1 G1 (Trypanosome Assay) was < 50 nM throughout. The Emax at APOL1 G1 (Trypanosome Assay) turned out to be 108%.

On to `C[C@@H]1CC2(C[C@H](C)N1)OCCc1c2sc(C(F)(F)F)c1CO` (single isomer, unassigned) [Compound 208], for which, at APOL1, the IC50 was < 50 nM. Moreover, at APOL1 G1 (Trypanosome Assay), the IC50 lay within 50 to 500 nM and the Emax amounted to 103%.

In the case of `CC1CC2(CC(C3CC3(F)F)N1)OCCc1cc(Cl)sc12` (single isomer, unassigned) [Compound 212], the IC50 against APOL1 is < 50 nM. Also, on APOL1 G1 (Trypanosome Assay), the IC50 is < 50 nM and the Emax was determined as 101%.

In general, IC90 refers to the point of the concentration-response curve where the effect stands at 90%. Low readings indicate greater potency, high ones weaker potency. As for `CC1CC2(CC(C3CC3(F)F)N1)OCCc1cc(Cl)sc12` (single isomer, unassigned) [Compound 213], on APOL1, the IC90 lay within 50 to 500 nM, the “Multi-Tox Assay Max Activity (%)” value was 99.5% and the IC50 lay in the range of 50 to 500 nM. Also, at APOL1 G1 (Trypanosome Assay), the “Trypanosome Assay Max Activity (%)” value is 98.7% and the IC50 lay in the range of 50 to 500 nM.

Regarding `Cc1cc2c(s1)C1(C[C@@H](c3cn(C)nn3)N[C@@H](C)C1)OCC2` (stereo in doubt) [Compound 3], at APOL1, the IC50 is < 50 nM. On APOL1 G1 (Trypanosome Assay), the IC50 was < 50 nM and the Emax is 107%.

For the molecule `CCc1cc2c(s1)CCOC21C[C@@H](c2cn(C)nn2)N[C@@H](C)C1` (stereo in doubt) [Compound 4], the IC50 against APOL1 and on APOL1 G1 (Trypanosome Assay) was < 50 nM in each case. Moreover, the Emax at APOL1 G1 (Trypanosome Assay) worked out at 118%.

As for `CCc1cc2c(s1)CCO[C@@]21C[C@@H](c2cnn(CCS(C)(=O)=O)c2)N[C@@H](C)C1` (stereo in doubt) [Compound 5], at APOL1, the “Multi-Tox Assay Max Activity (%)” value was determined as 100.0% and the IC50 fell in the range of 50 to 500 nM. For the same molecule, at APOL1 G1 (Trypanosome Assay), the IC50 is 50 to 500 nM and the Emax turned out to be 111%.

For the molecule `CCc1cc2c(s1)C1(C[C@@H](c3cn(C)nn3)N[C@@H](C)C1)OCC2` (stereo in doubt) [Compound 6], the IC50 at APOL1 and on APOL1 G1 (Trypanosome Assay) was < 50 nM in each case. Moreover, at APOL1 G1 (Trypanosome Assay), the Emax came out at 102%.

As to `CCc1cc2c(s1)C(C)COC21C[C@@H](c2cn(C)nn2)N[C@@H](C)C1` (stereo in doubt) [Compound 10], at APOL1, the “Multi-Tox Assay Max Activity (%)” value is given as 99.7% and the IC50 was < 50 nM. On APOL1 G1 (Trypanosome Assay), the IC50 was in the range of 50 to 500 nM and the Emax was 101%.

`CCc1cc2c(s1)C(C)COC21C[C@@H](c2cn(C)nn2)N[C@@H](C)C1` (stereo in doubt) [Compound 11]: at APOL1, the IC90 is < 50 nM, the “Multi-Tox Assay Max Activity (%)” value was 99.3% and the IC50 was < 50 nM. On APOL1 G1 (Trypanosome Assay), the “Trypanosome Assay Max Activity (%)” value is 101.5% and the IC50 is < 50 nM.

With `CC1COC2(C[C@@H](c3cn(C)nn3)N[C@@H](C)C2)c2cc(Cl)sc21` (stereo in doubt) [Compound 12], at APOL1, the “Multi-Tox Assay Max Activity (%)” value was 99.3% and the IC50 was < 50 nM. Besides, at APOL1 G1 (Trypanosome Assay), the IC50 was < 50 nM and the Emax came to 102%.

`CC1COC2(C[C@@H](c3cn(C)nn3)N[C@@H](C)C2)c2cc(Cl)sc21` (stereo in doubt) [Compound 13]: on APOL1, the IC90 is < 50 nM, the “Multi-Tox Assay Max Activity (%)” value turned out to be 99.0% and the IC50 was < 50 nM. In addition, on APOL1 G1 (Trypanosome Assay), the “Trypanosome Assay Max Activity (%)” value came out at 100.0% and the IC50 was < 50 nM.

Take `CC1COC2(C[C@@H](c3cn(C)nn3)N[C@@H](C)C2)c2cc(C(F)(F)F)sc21` (stereo in doubt) [Compound 14]: the IC50 at APOL1 is < 50 nM. In addition, on APOL1 G1 (Trypanosome Assay), the IC50 is < 50 nM and the Emax turned out to be 102%.

The record behind these values is US12421249B2, “Inhibitors of APOL1 and methods of using same” (Vertex Pharmaceuticals Incorporated, priority 2020, dated 2025).
